Test results reported in patent publication US20250099426A1, “Indolium Compounds for Treating Cancer” (Emory University, priority 2022, published 2025).
Entries after “also recorded” stand apart in the source; their conditions may differ.

How the values were obtained:
Nkx3.2 = assay: Immunohistochemistry of in vivo LM36R tumor model, Nkx3.2; design: species or system mice; settings: treated LM36R tumor versus control
Protocol: (§1) Tumor samples were resected and embedded in formalin, processed, and stained. Formalin-fixed and paraffin-embedded tissue sections from each group were cut to a 5-μm thickness and air-dried. Processing was performed using Ventana DISCOVERY™ Ultra automated immunohistochemistry stainer. Slides were deparaffinized with EZ-Prep (#05279771001) and then were antigen retrieved for 64 minutes with CC1 reagent (#950-500). Rabbit anti-Eph receptor A3 (EphA3) antibody (ab126261) diluted at 1:50, Rabbit anti-Nkx3.2 (#PA5-21108 diluted at 1:500) and mouse anti-Rbl antibody (554136) diluted at 1:100 were applied and incubated for 40 minutes. For the first two stains, DISCOVERY™ OmniMap anti-Rb HRP was applied and incubated for 12 minutes, and the detection was completed in combination with DISCOVERY™ ChromoMap DAB kit for anti-EphA3 antibody and DISCOVERY™ Red kit for anti-Nkx3.2 anti-body, as per manufacturer recommendations. For the Rbl stain, DISCOVERY™ OmniMap anti-mouse HRP was applied and incubated for 12 minutes, and the detection was completed in combination with DISCOVERY™ ChromoMap DAB kit. Slides were counterstained with hematoxylin for 8 minutes. Slides were then dehydrated, cover-slipped, and evaluated by light microscopy. Whole imaging was performed.

[1] = tested on: LM36R, a vemurafenib-resistant melanoma cell line; assay: In vivo LM36R xenograft model, tumor volume; design: species or system athymic Nu/Nu nude male mice; settings: LM36R 1×10^6 cells/mouse, IP three times a week, 3 mg/kg/week, 4 weeks, N=5/group, p-value=0.03 at week 4
Protocol: Mice were inoculated with LM36R, a vemurafenib-resistant melanoma cell line, at 1×10^6 cells/mouse. Mice were then treated with Indolium via IP administration three times a week at a concentration of 3 mg/kg/week. Tumor growth was compared to control vehicle (sterile water). […] (N=5/group, p-value=0.03) at week 4.
In order to investigate Indolium 1 activity against LM36R, vemurafenib-resistant melanoma cell line, in vivo, 10 mice were inoculated at 1×10^6 cells/mouse. Mice were then treated with indolium 1 via IP administration three times a week at a concentration of 3 mg/kg/week. […] (FIG. 2).
The xenograft model was developed. A LM36R cell suspension in growth medium was inoculated at 1×10^6 cells/mouse in the right flank of athymic Nu/Nu nude male mice (n=5 per group). MPIB was prepared by dissolving 3.75 mg into 1 mL of ethanol 7. This solution (100 μL) was then diluted to the final concentration in 1 mL of 20% soy-fat Intralipid™ prior to each injection and vortexed vigorously. […] MPIB treatment was initiated on the second day after the tumor cell injection, and the tumor volume as well as the weight of the animals were recorded weekly thereafter. Animals were sacrificed and tumors were harvested after tumor volumes reached experimental endpoint as determined by IACUC protocol.

pAkt = assay: Western blotting of treated LM36R cells, pAkt; format: cell-based; settings: 0.1-5 μM Indolium 1, 24 hours
Protocol: (§2) LM36R cells were grown in six T75 flasks. Upon reaching 70% confluence, cell media was replaced with media with concentrations of 0, 0.1, 0.5, 1, 2.5, and 5 μM Indolium 1. After 24 hours, cells were lysed in RIPA buffer (25 mM Tris-HCl, 150 mM NaCl, 1% NP-40, 1% sodium deoxycholate, 0.1% sodium dodecyl sulfate, pH 7.6) supplemented with HALT™ protease phosphatase inhibitor cocktails and 0.5 M EDTA solution. Cell lysates incubated on ice for 30 minutes, and then centrifuged at 16,000×g at 4° C. for 20 minutes. Protein concentration was determined using the Pierce BCA Protein Assay Kit™ and then normalized. NuPage™ LDS Sample Buffer (4×) and beta-mercaptoethanol were added to the samples, which were subsequently boiled. Sample protein (40 μg) of were loaded into each well of NuPAGE™ 4-12% Bis-Tris precast gels in MOPS buffer against Precision Plus™ Protein Dual Color Standards. Proteins were transferred onto polyvinylidene difluoride membrane using Transblot Turbo™ system. Membrane was blocked for 1 hour at room temperature in 5% non-fat dry milk in 0.1% Tween-Tris-Buffered Saline and probed with Rb (#PA5-27215) pMAPK (9101S), pAkt (#4060S), and beta-tubulin (#2146S) antibodies at 1:1000 dilutions in 5% bovine serum albumin at 4° C. overnight. […] Antibody signal was detected using SuperSignal™ West Pico chemiluminescence substrate with Medical X-Ray Film and digitally scanned.

pMAPK = assay: Western blotting of treated LM36R cells, pMAPK; format: cell-based; settings: 0.1-5 μM Indolium 1, 24 hours
Protocol: as §2

EphA3 [2] = assay: Immunohistochemistry of in vivo LM36R tumor model, EphA3; design: species or system mice; settings: treated LM36R tumor tissue versus controls
Protocol: as §1

LM36R cells = assay: Proliferation assay / cell viability (AlamarBlue); format: cell-based; settings: Indolium 1 1 μM, 24 hours
Protocol: Lanes: 1) Control 2) Indolium 1 (1 μM) 3) MEK Inhibitor U0126 (10 μM) 4) Akt Inhibitor II (10 μM) 5) Indolium 1 (1 μM)+MEK Inhibitor U0126 (10 μM) 6) Indolium 1+Akt Inhibitor II (10 μM). *=Statistically lower cell viability compared to control (p<0.05). **=Statistically lower cell viability compared to control and statistically higher cell viability than Indolium 1 treatment (lane 2) alone. Inhibition of MAPK and Akt reverses cell death caused by Indolium 1.
The induction of MAPK and Akt seem to contribute to reduction in tumor size observed in mice treated with Indolium 1. In a cell viability assay, cells were treated with Indolium 1, MEK inhibitor (inhibiting the MAPK signaling pathway directly upstream of MAPK), and Akt inhibitor. Cells were also treated with a combination of Indolium 1 and each inhibitor. […]
A cell proliferation assay was used to study the effect of Indolium 1 in vitro. […] After 4 hours, the plate was read following manufacturer's instructions and the data was processed using Softmax™ Pro software (Molecular Devices). An unpaired two-tailed Student's t-test was performed to determine the significant difference between the control and each treatment group, along with between the Indolium 1 only versus Indolium 1 plus MEK/Akt inhibitor, with significance determined at p<0.05.

Rb [3] = assay: Western blotting of treated LM36R cells, Rb; format: cell-based; settings: 0.1-5 μM Indolium 1, 24 hours
Protocol: as §2

Rb [4] = assay: Immunohistochemistry of in vivo LM36R tumor model, Rb; design: species or system mice; settings: treated LM36R tumor tissue versus control tissue
Protocol: as §1

[5] = design: species or system mice; settings: mouse, in vivo
Protocol: The ability to inhibit the growth of vemurafenib resistant melanoma in vivo is unique.
The xenograft model was developed. A LM36R cell suspension in growth medium was inoculated at 1×10^6 cells/mouse in the right flank of athymic Nu/Nu nude male mice (n=5 per group). MPIB was prepared by dissolving 3.75 mg into 1 mL of ethanol 7. This solution (100 μL) was then diluted to the final concentration in 1 mL of 20% soy-fat Intralipid™ prior to each injection and vortexed vigorously. Vehicle control (ethanol in Intralipid) or MPIB was administered intraperitoneally three times a week at 3 mg/kg/week. MPIB treatment was initiated on the second day after the tumor cell injection, and the tumor volume as well as the weight of the animals were recorded weekly thereafter. Animals were sacrificed and tumors were harvested after tumor volumes reached experimental endpoint as determined by IACUC protocol.

EphA3 [6] = assay: ATAC-seq of LM36R tumors, chromatin accessibility; format: in vivo; settings: treated versus vehicle LM36R tumors in mice
Protocol: To gain insights into the mechanisms by which Indolium 1 caused decrease in LM36R tumor volume, we analyzed possible changes in chromatin structure in the tumor cells using ATAC-seq. […] To further explore the effects that Indolium 1 has on cells which could have led to tumor size reduction, LM36R cells were treated with varying concentrations of Indolium 1. […] Beta-tubulin was used to confirm even protein concentrations in each sample.
Experiments reported herein indicate that small molecule, Indolium 1 has activity against vemurafenib resistant BRAF mutant melanoma. Vehicle versus Indolium treated tumors in mice were analyzed for potential biomarkers and for insight into the mechanism of Indolium 1 in vivo. […] EphA3 is a receptor tyrosine kinase which binds ligands ephrinA5 and […]. […] First, inactivating mutations in EphA3 are often found in high grade malignancies. Second, activation of wild type EphA3 causes downregulation of Akt, which has previously been implicated in melanoma progression. […] Finally, a novel antibody based therapeutic directed against EphA3, and therapies that induce EphA3 could sensitize melanoma to anit-EphA3 antibodies.

**Q.** With “3-(bis(4-(diethylamino)phenyl) methylene)-1-methyl-2-phenyl-3H-indol-1-ium [Indolium 1]” as the substance, how does the Nkx3.2 immunohistochemical staining (Nkx3.2) read?
**A.** Its Nkx3.2 immunohistochemical staining is “upregulated Nkx3.2 expression”.

**Q.** And the “tumor volume versus control” value [1]?
**A.** Its value is “potent in vivo activity against LM36R; also recorded: significant reduction of tumor volume; also recorded: reduced tumor volume over 4 weeks”.

**Q.** And the “pAkt levels (Western blot)” value (pAkt)?
**A.** The value was “induction”.

**Q.** And the “pMAPK levels (Western blot)” value (pMAPK)?
**A.** Its value is “induction of phosphorylated MAP kinase”.

**Q.** And the EphA3 immunohistochemical staining (EphA3 [2])?
**A.** Its EphA3 immunohistochemical staining is “more positivity for EPHA3 compared to controls”.

**Q.** And the relative cell viability (LM36R cells)?
**A.** Its relative cell viability is “cell death”.

**Q.** What about the “levels of Rb (Western blot)” value (Rb [3]) of the same substance?
**A.** The value was “decreased with increasing concentrations”.

**Q.** And the Rb immunohistochemical staining (Rb [4])?
**A.** The Rb immunohistochemical staining was “less Rb compared with control tissue”.

**Q.** And the tolerability [5]?
**A.** Its tolerability is “well tolerated”.

**Q.** What about the “EphA3 chromatin accessibility (ATAC-seq)” value (EphA3 [6]) of the same substance?
**A.** The value was “one of the most upregulated genes in terms of chromatin accessibility”.
